Experimental data as given in US20230121086A1, “RORgT INHIBITOR, PREPARATION METHOD THEREOF AND USE THEREOF” (SUNSHINE LAKE PHARMA CO., LTD., priority 2020, published 2023).

target: T1, RORγt (Homo sapiens, UniProt P51449); test: Fluorescence resonance energy transfer (FRET) test, inhibitory activity of RORγt; assay type: biochemical; settings: not given
T1 construct: […]
T1 sequence (P51449 269-508 limits assumed): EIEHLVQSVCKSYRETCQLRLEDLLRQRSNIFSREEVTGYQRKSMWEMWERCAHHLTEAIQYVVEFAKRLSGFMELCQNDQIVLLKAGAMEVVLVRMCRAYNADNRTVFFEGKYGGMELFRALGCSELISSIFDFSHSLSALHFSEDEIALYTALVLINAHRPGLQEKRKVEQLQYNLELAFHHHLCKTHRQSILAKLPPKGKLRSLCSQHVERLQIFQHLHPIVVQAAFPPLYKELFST

Row | Structure (SMILES) | IC50 [nM]
1 | [2H]C([2H])(NC(=O)c1ccc(N2C[C@@H](Oc3ccc(OC(F)(F)F)cn3)C[C@H]2COC(F)F)cc1)c1ccc(S(=O)(=O)CC)cc1 [Example 169, N-(Dideuterium(4-(ethylsulfonyl)phenyl)methyl)-4-((2S,4S)-2-((difluoromethoxy)methyl)-4-((5-(trifluoromethoxy)pyridin-2-yl)oxy)pyrrolidin-1-yl) benzamide] | 6

same assay, conditions: FRET, B-RORγt LBD / Biotin-SRC1; read-out: IC50

Row | IC50 [nM] | Structure (SMILES)
2 | 5.1 | CCS(=O)(=O)c1ccc([C@H](CC#N)NC(=O)c2ccc(N3C[C@@H](Oc4ccc(-n5ccc(C)n5)cc4)C[C@H]3COC(F)F)cc2)cc1 [Example 163, N—((S)-2-cyano-1-(4-(ethylsulfonyl)phenyl)ethyl)-4-((2S,4S)-2-((difluoromethoxy)methyl)-4-(4-(3-methyl-1H-pyrazol-1-yl)phenoxy)pyrrolidin-1-yl) benzamide]
3 | 3.1 | CCS(=O)(=O)c1ccc([C@H](COC(N)=O)NC(=O)c2cnc(N3C[C@@H](Oc4ccc(Cl)cn4)C[C@H]3COC(F)F)c(F)c2)cc1 [Example 164, (R)-2-(6-((2S,4S)-4-((5-chloropyridin-2-yl)oxy)-2-((difluoromethoxy)methyl)pyrrolidin-1-yl)-5-fluoronicotinamido)-2-(4-(ethylsulfonyl)phenyl)ethyl carbamate]
4 | 8 | CCS(=O)(=O)c1ccc([C@H](COC(N)=O)NC(=O)c2ccc(N3C[C@@H](Oc4ccc(-n5cccn5)cn4)C[C@H]3COC(F)F)nc2)cc1 [Example 168, (R)-2-(6-((2S,4S)-4-((5-(1H-pyrazol-1-yl)pyridine-2-yl)oxy)-2-((difluoromethoxy)methyl)pyrrolidin-1-yl)nicotinylamino)-2-(4-(ethylsulfonyl)phenyl)ethyl carbamate]
5 | 9 | CCS(=O)(=O)c1ccc([C@H](COC(N)=O)NC(=O)c2ccc(N3C[C@@H](Oc4ccc(-n5nccn5)cn4)C[C@H]3COC(F)F)cc2)cc1 [Example 170, (R)-2-(4-((2S,4S)-4-((5-(2H-1,2,3-triazol-2-yl)pyridine-2-yl)oxy)-2-((difluoromethoxy)methyl)pyrrolidin-1-yl)benzoylamino)-2-(4-(ethylsulfonyl)phenyl)ethyl carbamate]
6 | 23.5 | CCS(=O)(=O)c1ccc([C@H](CC(=O)O)NC(=O)c2ccc(N3C[C@@H](Oc4ccc(-n5cccn5)cn4)C[C@H]3COC(F)F)cc2)cc1 [Example 172, (S)-3-(4-((2S,4S)-4-((5-(1H-pyrazol-1-yl)pyridine-2-yl)oxy)-2-((difluoromethoxy)methyl)pyrrolidin-1-yl)benzamido)-3-(4-(ethylsulfonyl)phenyl)propionic Acid]
7 | 3.8 | CCS(=O)(=O)c1ccc([C@H](COC(N)=O)NC(=O)c2ccc(N3C[C@@H](Oc4ccc(-n5nccn5)cn4)C[C@H]3COC(F)F)nc2)cc1 [Example 173, (R)-2-(6-((2S,4S)-4-((5-(2H-1,2,3-triazol-2-yl)pyridine-2-yl)oxy)-2-((difluoromethoxy)methyl)pyrrolidin-1-yl)nicotinylamino)-2-(4-(ethylsulfonyl)phenyl)ethyl carbamate]
8 | 39.2 | CCS(=O)(=O)c1ccc([C@H](COCC(=O)O)NC(=O)c2ccc(N3C[C@@H](Oc4ccc(-n5cccn5)cn4)C[C@H]3COC(F)F)nc2)cc1 [Example 175, 2-((R)-2-(6-((2S,4S)-4-((5-(1H-pyrazol-1-yl)pyridine-2-yl)oxy)-2-((difluoromethoxy)methyl)pyrrolidin-1-yl)nicotinylamino)-2-(4-(ethylsulfonyl)phenyl)ethoxy)acetic Acid]
9 | 7.3 | CCS(=O)(=O)c1ccc([C@H](COC(N)=O)NC(=O)c2ccc(N3C[C@@H](Oc4ccc(OC(F)(F)F)cn4)C[C@H]3CF)nc2)cc1 [Example 176, (R)-2-(4-(Ethylsulfonyl)phenyl)-2-(6-((2S,4S)-2-(fluoromethyl)-4-((5-(trifluoromethoxy)pyridin-2-yl)oxy)pyrrolidin-1-yl)nicotinamido)ethyl carbamate]
10 | 27.4 | CCS(=O)(=O)c1ccc([C@H](COC(N)=O)NC(=O)c2cnc(N3CCCC3c3cccc(F)c3)nc2)cc1 (stereo partly drawn) [Example 177, (2R)-2-(4-(Ethylsulfonyl)phenyl)-2-(2-(2-(3-fluorophenyl)pyrrolidin-1-yl)pyrimidine-5-carboxamido)ethyl carbamate]
11 | 46.2 | CCS(=O)(=O)c1ccc([C@H](CC(=O)O)NC(=O)c2cnc(N3CCCC3c3cccc(F)c3)nc2)cc1 (stereo partly drawn) [Example 178, (3S)-3-(4-(Ethylsulfonyl)phenyl)-3-(2-(2-(3-fluorophenyl)pyrrolidin-1-yl)pyrimidine-5-carboxamido)propionic Acid]

The remaining lines, values behind:

Row | Structure (SMILES) | IC50 [nM]
12 | CCS(=O)(=O)c1ccc([C@H](COC(N)=O)NC(=O)c2ccc(N3C[C@@H](Oc4ccc(C(F)(F)F)cc4)C[C@H]3COC(F)F)cc2)cc1 [Example 149, (R)-2-(4-((2S,4S)-2-((difluoromethoxy)methyl)-4-(4-(trifluoromethyl)phenoxy)pyrrolidin-1-yl)benzoylamino)-2-(4-(ethylsulfonyl)phenyl)ethyl carbamate] | 7.7
13 | CCS(=O)(=O)c1ccc([C@H](COC(=O)NC)NC(=O)c2ccc(N3C[C@@H](Oc4ccc(C(F)(F)F)cc4)C[C@H]3COC(F)F)cc2)cc1 [Example 150, (R)-2-(4-((2S,4S)-2-((difluoromethoxy)methyl)-4-(4-(trifluoromethyl)phenoxy)pyrrolidin-1-yl)benzoylamino)-2-(4-(ethylsulfonyl)phenyl)ethyl methylcarbamate] | 10
14 | [2H]C([2H])([2H])OC[C@@H]1C[C@H](Oc2ccc(C(F)(F)F)cc2)CN1c1ccc(C(=O)N[C@@H](CC#N)c2ccc(S(=O)(=O)CC)cc2)cc1 [Example 151, N—((S)-2-cyano-1-(4-(ethylsulfonyl)phenyl)ethyl)-4-((2S,4S)-2-((3,3,3-d3-methoxy)methyl)-4-(4-(trifluoromethyl)phenoxy)pyrrolidin-1-yl)benzamide] | 8.7
15 | CCS(=O)(=O)c1ccc([C@H](CC#N)NC(=O)c2ccc(N3C[C@@H](Oc4ccc(-n5cccn5)cc4)C[C@H]3COC(F)F)cc2)cc1 [Example 152, 4-((2S,4S)-4-(4-(1H-pyrazol-1-yl)phenoxy)-2-((difluoromethoxy)methyl)pyrrolidin-1-yl)-N—((S)-2-cyano-1-(4-(ethylsulfonyl)phenyl)ethyl)benzamide] | 13.2
16 | CCS(=O)(=O)c1ccc([C@H](COC(N)=O)NC(=O)c2ccc(N3C[C@@H](Oc4ccc(Cl)cn4)C[C@H]3COC(F)F)cc2)cc1 [Example 153, (R)-2-(4-((2S,4S)-4-((5-chloropyridin-2-yl)oxy)-2-((difluoromethoxy)methyl)pyrrolidin-1-yl)benzoylamino)-2-(4-(ethylsulfonyl)phenyl)ethyl carbamate] | 5
17 | CCS(=O)(=O)c1ccc([C@H](COC(=O)N(C)C)NC(=O)c2ccc(N3C[C@@H](Oc4ccc(C(F)(F)F)cc4)C[C@H]3COC(F)F)cc2)cc1 [Example 154, (R)-2-(4-((2S,4S)-2-((difluoromethoxy)methyl)-4-(4-(trifluoromethyl)phenoxy)pyrrolidin-1-yl)benzoylamino)-2-(4-(ethylsulfonyl)phenyl)ethyl dimethylcarbamate] | 47
18 | CCS(=O)(=O)c1ccc([C@H](COC(=O)NC)NC(=O)c2ccc(N3C[C@@H](Oc4ccc(OC(F)(F)F)cn4)C[C@H]3COC(F)F)cc2)cc1 [Example 155, (R)-2-(4-((2S,4S)-2-((difluoromethoxy)methyl)-4-((5-(trifluoromethoxy)pyridin-2-yl)oxy)pyrrolidin-1-yl)benzoylamino)-2-(4-(ethylsulfonyl)phenyl)ethyl methylcarbamate] | 11
19 | CCS(=O)(=O)c1ccc([C@H](COC(N)=O)NC(=O)c2ccc(N3C[C@@H](Oc4ccc(OC(F)(F)F)cn4)C[C@H]3COC(F)F)cc2)cc1 [Example 156, (R)-2-(4-((2S,4S)-2-((difluoromethoxy)methyl)-4-((5-(trifluoromethoxy)pyridin-2-yl)oxy)pyrrolidin-1-yl)benzoylamino)-2-(4-(ethylsulfonyl)phenyl)ethyl carbamate] | 3.1
20 | CCS(=O)(=O)c1ccc([C@H](CC#N)NC(=O)c2ccc(N3C[C@@H](Oc4ccc(-n5nccn5)cc4)C[C@H]3COC(F)F)cc2)cc1 [Example 157, 4-((2S,4S)-4-(4-(2H-1,2,3-triazol-2-yl)phenoxy)-2-((difluoromethoxy)methyl)pyrrolidin-1-yl)-N—((S)-2-cyano-1-(4-(ethylsulfonyl)phenyl)ethyl)benzamide] | 6.9
21 | CCS(=O)(=O)c1ccc([C@H](CC#N)NC(=O)c2ccc(N3C[C@@H](Oc4ccc(-n5cccn5)cn4)C[C@H]3COC(F)F)cc2)cc1 [Example 158] | 7.4
22 | CCS(=O)(=O)c1ccc([C@H](CC#N)NC(=O)c2ccc(N3C[C@@H](Oc4ccc(-n5cc(C)cn5)cc4)C[C@H]3COC(F)F)cc2)cc1 [Example 159, N—((S)-2-cyano-1-(4-(ethylsulfonyl)phenyl)ethyl)-4-((2S,4S)-2-((difluoromethoxy)methyl)-4-(4-(4-methyl-1H-pyrazol-1-yl)phenoxy)pyrrolidin-1-yl) benzamide] | 10.2
23 | CCS(=O)(=O)c1ccc([C@H](CC#N)NC(=O)c2ccc(N3C[C@@H](Oc4ccc(Cl)cn4)C[C@H]3COC(F)F)cc2)cc1 [Example 160, 4-((2S,4S)-4-((5-chloropyridin-2-yl)oxy)-2-((difluoromethoxy)methyl)pyrrolidin-1-yl)-N—((S)-2-cyano-1-(4-(ethylsulfonyl)phenyl)ethyl)benzamide] | 5.6
24 | CCS(=O)(=O)c1ccc([C@H](CC#N)NC(=O)c2ccc(N3C[C@@H](Oc4ccc(-n5ccc(F)n5)cc4)C[C@H]3COC(F)F)cc2)cc1 [Example 162, N—((S)-2-cyano-1-(4-(ethylsulfonyl)phenyl)ethyl)-4-((2S,4S)-2-((difluoromethoxy)methyl)-4-(4-(3-fluoro-1H-pyrazol-1-yl)phenoxy)pyrrolidin-1-yl)benzamide] | 9.9
